Assay results reported in PMC9782626, “Copper(II) Complexes of 5–Fluoro–Salicylaldehyde: Synthesis, Characterization, Antioxidant Properties, Interaction with DNA and Serum Albumins” (Molecules, 2022).

Key:
[1] = DPPH radical scavenging assay; format: biochemical; conditions: compound 0.1 mM
Excerpt: (§1) For the above reasons, the antioxidant ability of 5–F–saloH and Cu(II) complexes 1–5 has been evaluated via their scavenging activity towards DPPH and ABTS radicals, as well as the ability to reduce H2O2, and in comparison with that of well-known antioxidant agents such as nordihydroguaiaretic acid (NDGA), butylated hydroxytoluene (ΒHΤ), 6–hydroxy–2,5,7,8–tetramethylchromane–2–carboxylic acid (trolox) and L–ascorbic acid (these are the most commonly used standard reference antioxidant agents). The DPPH-radical assay was developed in the 1950s and this method has been used to assess the antioxidant capacity of several metal complexes. The DPPH–scavenging ability of compounds has often been related to their ability to prevent ageing, cancer and inflammation. The ability of a compound to scavenge the cationic ABTS radicals (ABTS^+●) has been considered a measure of its total antioxidant activity. Further, hydrogen peroxide has the ability to penetrate biological membranes and, although it is not very reactive itself, it can sometimes be toxic since it may give rise to hydroxyl radicals in cells. For this reason, the removal of H2O2 is very important for the protection of living systems. When a compound is incubated with H2O2 using a peroxidase assay system, the loss of H2O2 can be measured.
(§2) S1 Antioxidant activity assay
(§3) The antioxidant activity of the compounds was evaluated via their ability to scavenge in vitro free radicals such as DPPH and ABTS and to reduce H 2O2. All the experiments were carried out at least in triplicate and the standard deviation of absorbance was less than 10% of the mean.
S1.1 Determination of the reducing activity of the radical DPPH
To an ethanolic solution of DPPH (0.1 mM) an equal volume solution of the compounds (0.1 mM) in ethanol was added. Absolute ethanol was also used as control solution. The absorbance at 517 nm was recorded at room temperature after 30 and 60 min, in order to examine the possible existence of a potential time-dependence of the DPPH radical scavenging act iv ity [S 1]. The DPPH -scavenging activity of the compounds was expressed as the percentage reduction of the absorbance values of the initial DPPH solution ( DPPH%). N DGA and BHT were used as reference comp ounds. […]

CT DNA = test: Binding study with CT DNA by UV-vis spectroscopy; parameters: species or system calf
Description: Initially, the UV–vis spectra of complexes 1–5 (2.5 × 10^−5 – 1 × 10^−4 M) were recorded in the presence of incremental amounts of CT DNA (Figure 4), and the changes of the λmax of the bands observed in the spectra of the complexes were monitored as a means to study the interaction between complexes and CT DNA [50] and to calculate the corresponding DNA-binding constants (Kb). As observed, in the UV–vis spectra of the complexes, at least two bands were observed: band I in the range 314–339 nm and band II in the region 380–428 nm. […] These features indicate the interaction of the complexes with CT DNA [51], but may not provide sufficient information to reveal the possible interaction mode. Therefore, for the elucidation of the CT DNA interaction mode, further experiments involving DNA-viscosity measurements and competitive studies with EB were performed. […]
S2Binding studies with CT DNA
The interaction of the compounds with CT DNA was studied by UV-vis spectroscopy, viscosity measurements a nd via competit ive stud ie s with EB by fl uorescence […]
S2.1 Binding study with CT DNA by UV -vis spectroscopy
The interaction of the compounds with CT DNA has been studied by UV-vis spectroscopy in order to investigate the possible binding modes to CT DNA and to calculate the DNA-binding constants (Kb). The Kb constants (in M-1) were determined by the Wolfe-Shimer equation (eq. S1) [S3] and the plots [DNA]/(εA-εf) versus [DNA] using the UV-vis spectra of the compounds (20 -100 μM) recorded for a constant concentration with increasing concentrations of CT DNA for diverse [complex]/[DNA] mixing ratios (= r ).
Control experiments with DMSO were performed and no changes in the spectra of CT DNA were observed. […]
(§4) [DNA] = [DNA] + 1 (eq. S1) […]
where [DNA] is the concentration of DNA in base pa irs, εA = Aobsd/[compound ], εf = the extinction coefficient for the free compound and ε b = the extinction coefficient for the compound in the fully bound form. Kb is given by the ratio of slope to the y intercept in plots [DNA]/(εA-εf) versus[DNA]. […]

[2] = Reduction of hydrogen peroxide; format: biochemical; conditions: compound 0.1 mM, 10 min, pH 7.4
Excerpt: as §1, §2, §3
S1.1 Determination of the reducing activity of the radical DPPH […]
S1.3 Reduction of hydrogen peroxide
The ability of the com pounds to reduce hydrogen peroxide (H2O2) was est imated according to the method descr ibed in the literature [S2]. The reaction mixture contained 20 μL of each of the tested compounds (0.1 mM) and 5 μL H2O 2 solution (40 mM) in phosphate buffer (50 mM, pH = 7.4). The absorbance was measure d at 230 nm after 10 min.
The antioxidant activity (reduction of hydrogen peroxide) of the compounds wa s […]
expressed as the percentage decrease of t he init ial H 2O2 solution (H 2O2%). L-ascor b ic ac id (or vitamin C) was use d as a standard. […]
as §4
where [DNA] is the concentration of DNA in base pa irs, εA = Aobsd/[compound ], εf = the extinction coefficient for the free compound and ε b = the extinction coefficient for the compound in the fully bound form. Kb is given by the ratio of slope to the y intercept in plots [DNA]/(εA-εf) versus[DNA].
S2.2CT DNA -binding studie s by viscosity measurements
The interaction of compounds with DNA has been evaluated via the study of the CT DNA viscosity ([DNA] = 0.1 mΜ) in a buffer solution (150 mM NaCl and 15 mM trisodium citrate at pH 7.0) in the presence of increasing amount of complexes (up to the value of r = 0.36). The obtained data are presented as (η/η 0)1/3 versus r, where η is the viscosity of DNA in the presence of the compound, and η0 is the viscosity of DNA alone in buffer solution.
S2.3 EB -displa cement studie s
The competition of the complexes with EB was investigated by fluorescence emission spectroscopy in order to examine whether the compounds can displace EB from its DNA-EB conjugate. The CT DNA-EB complex was formed by pre-treating 20 μM EB and 26 μM CT DNA in buffer (150 mM NaCl and 15 mM trisodium citrate at pH = 7.0).
The possible displacement of EB by the compounds and su bseq uently t he ir intercalating effect was studied by the stepwise addition of a certain amount of the solution of each

Solubility in solvents = format: physicochemical
[3] = first UV band listed in the cell (295–334 nm)
[4] = second UV band listed in the cell (330–421 nm)

SMILES | DPPH% (30 min), % DPPH–scavenging ability [1] [%] | DPPH% (60 min), % DPPH–scavenging ability [1] [%] | ΔA/Aο, percentage of hyper-/hypo-chromism upon addition of CT DNA (CT DNA; [3]) [%] | ΔA/Aο, percentage of hyper-/hypo-chromism upon addition of CT DNA (CT DNA; [4]) | H2O2%, H2O2–reducing activity [2] [%] | Solubility in DMSO and DMF (Solubility in solvents) | Solubility in MeOH (Solubility in solvents) | ΔA/Aο, percentage of hyper-/hypo-chromism upon addition of CT DNA (CT DNA; third UV band listed in the cell (405 nm))
O=Cc1cc(F)ccc1[O-].O=[N+]([O-])[O-].[Cu+2].c1ccc(-c2ccccn2)nc1 [Complex 5, [Cu(5–F–salo)(bipy)(NO3)]] | 7.19 ± 0.26 | 4.06 ± 0.20 | −72 | −28% | 69.21 ± 1.10 | – | – | –
CO.Cc1ccc2ccc3ccc(C)nc3c2n1.O=Cc1cc(F)ccc1[O-].[Cl-].[Cu+2] [Complex 3, [Cu(5–F–salo)(neoc)Cl].CH3OH] | 7.42 ± 0.54 | – | −41 | +34% | 26.10 ± 0.66 | soluble | partially soluble | –
O=Cc1cc(F)ccc1[O-].[Cl-].[Cu+2].c1ccc(Nc2ccccn2)nc1 [Complex 2, [Cu(5–F–salo)(bipyam)Cl]] | 7.54 ± 0.20 | 7.42 ± 0.50 | −12 | > +50% | 99.69 ± 0.29 | soluble | partially soluble | –
O=Cc1cc(F)ccc1[O-].O=Cc1cc(F)ccc1[O-].[Cu+2] [Complex 1, [Cu(5–F–salo)2]] | 9.05 ± 0.54 | 10.79 ± 0.20 | −34 | −20% | 71.61 ± 0.35 | soluble | – | –
O=Cc1cc(F)ccc1[O-].O=[N+]([O-])[O-].[Cu+2].c1cnc2c(c1)ccc1cccnc12 [Complex 4, [Cu(5–F–salo)(phen)(NO3)]] | 6.15 ± 0.33 | 4.64 ± 0.10 | −38 | −29% | 25.90 ± 0.76 | soluble | – | +44%
